Tests used:
LC3-I/LC3-II = experiment: Immunoblotting for LC3-I conversion to LC3-II (autophagy); assay type: cell-based, human; settings: A2058, 3-MA 5 mM
Method: (§1) FIG. 14. ΔPK induced autophagy contributes to its ability to cause melanoma cell death. (A) A2058 cells were mock or ΔPK-infected (multiplicity of infection, moi=1.0) with and without the autophagy inhibitor 3-MA and protein extracts were assayed for LC3-I and LC3-II expression by immunoblotting. Data were quantified by densitometric scanning, and results are expressed as LC3-I/LC3-II ratio±s.d. (B). A2058 melanoma cultures were mock or ΔPK-infected (moi=5), cultured in serum-free medium and stained with ethidium homodimer-1 (EtHD-1) at 48 h p.i. Cells were counted in three randomly selected fields (>250 cells) and the mean percentage of staining cells was calculated.
The role of autophagy in cell death is still controversial. The general consensus is that autophagy is a mechanism that promotes or counteracts cell death depending on the cell type, stimulus and conditions. […] To examine whether autophagy was increased in ΔPK infected cells, we focused on LC3-I conversion to LC3-II which serves as a marker for autophagosome maturation.
A2058 cells were mock and ΔPK-infected (multiplicity of infection, moi=1.0) with and without the autophagy inhibitor 3-MA. Data were quantified by densitometric scanning, and results are expressed as the ratio of the LC3-I/LC3-II ratio±s.d.

A2058 melanoma cultures = experiment: EtHD-1 cell death with or without autophagy inhibitor; assay type: cell-based, human; settings: A2058, ΔPK plus 3-MA, 48 h p.i.
Method: as §1
To examine the role of autophagy in ΔPK-induced melanoma cell death, the cultures were mock-infected with PBS or infected with ΔPK in the absence or presence of 3-MA and cell death was determined at 0-72 h p.i. by EtHD-1 staining. ΔPK caused a time-dependent increase in the percentage of EtHD-1+ cells that reached maximal levels at 48 h p.i. (51.1±4.8%,).
A2058 melanoma cultures were mock or ΔPK-infected (moi=0.5), cultured in serum-free medium and stained with ethidium homodimer-1 (EtHD-1) at 48 h p.i. Cells were counted in three randomly selected fields (>250 cells) and the mean percentage of staining cells was calculated.

Cn1cnc(N)c2ncnc1-2 [3-MA, 3-Methyl-adenine]
effect of inhibitor on LC3-I conversion after ΔPK treatment (LC3-I/LC3-II): reversed LC3-I conversion | percentage of cell death (EtHD-1+) in ΔPK infected cultures in presence of inhibitor (A2058 melanoma cultures): 37.3±5.2%

Reference: US8414885B2, “Methods and compositions for treating cancer” (priority 2009, dated 2013)
